# Assay results reported in article PMC5027092, “Specific histamine binding activity of a new lipocalin from Hyalomma asiaticum (Ixodidae) and therapeutic effects on allergic asthma in mice” (Parasites & Vectors, 2016).
# Molecular target: T1, Ha24 (rHa24-GST) (Hyalomma asiaticum, UniProt A0A1W5TAU9)
# T1 construct: precursor 227 aa with 26-residue signal peptide, mature 201 aa
# T1 sequence (A0A1W5TAU9 27-227): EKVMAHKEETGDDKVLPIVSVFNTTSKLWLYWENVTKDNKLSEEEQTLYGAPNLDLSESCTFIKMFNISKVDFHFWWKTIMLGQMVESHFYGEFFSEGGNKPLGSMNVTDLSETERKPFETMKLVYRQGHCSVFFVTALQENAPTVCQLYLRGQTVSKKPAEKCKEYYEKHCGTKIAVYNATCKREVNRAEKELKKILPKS
# Experiment: ELISA with immobilised rHa24-GST and histamine-HRP conjugate, OD […] nm
# Format: binding
# Details: labelled compound (histamine-HRP); protein coated at 1.25-10 ug/ml, pH 9.6; 37 °C, 2 h; GST as control
smiles,measurement,value
NCCc1c[nH]cn1 [histamine],"ELISA with immobilised rHa24-GST and histamine-HRP conjugate, OD 650 nm",The results showed that rHa24 has the ability to bind with histamine
